Measurements taken from patent US8343912B2, “Antibiotic compositions for the treatment of gram negative infections” (priority 2008, dated 2013).
Values after ≈ are worked out from the molar mass of the structure shown. Marks after values point to notes of the source that are not given here. Numbered stars: 1 amine (or outer) side, 2 acyl side, 3 side chain; on linkers, the order of the positions; unused ones are H or OH. Bridge positions count the residues as written; N and C are the ends. Square brackets hold non-standard residues; d marks the D form. Peptide text beside a SMILES is read from it. * marks the point of attachment. NH(3-Cl-phenyl) = Clc1cccc(N*)c1; NH(2-ClPh) = Clc1ccccc1N*; Dab = NCC[C@H](N)C(=O)O; CO = O=C([*:1])[*:2]

Assays:
[1] = system: P. aeruginosa; experiment: MIC, broth microdilution (Table 4); format: cell-based, Pseudomonas aeruginosa; details: for MIC P. aeruginosa: Table 4
Procedure: (§1) MIC testing was performed according to Clinical and Laboratory Standards Institute (CLSI) M7-A7 (2006) broth microdilution methods. Unless otherwise indicated, MIC values are provided in units of micrograms per milliliter.
(§2) One day prior to testing, individual colonies were isolated by streaking onto rich, non-selective Tryptic Soy agar with 5% lysed sheeps blood (TSAB) with incubation at 35-37° C. for 18-24 hours.
(§3) Cultures were prepared by touching 3-5 colonies into 3 mL of Cation adjusted Mueller Hinton Broth (caMHB) in a 14 mL tube (CaMHB was prepared and sterilized according to manufacturer's specifications). Cultures were grown at 37° C. 200 rpm for approximately four hours prior to density adjustment for addition to the MIC assay.
(§4) OD600 of growing cultures was measured and adjusted to approximately 10^5 colony forming units per mL (CFU/mL) in caMHB for MIC inoculation (approximately OD600 0.001).
(§5) Diluted cultures were used to inoculate 50 μL per well in broth microdilution assays (final volume 100 μl per well; compounds were prepared in two-fold dilutions).
(§6) Plates were incubated 16-20 hrs at 37° C., with shaking at 200 rpm.
(§7) OD600 was determined for all wells. Growth was defined as OD600>0.1. MICs were defined as the lowest concentration producing no visible turbidity (OD600<0.1).

[2] = Cell culture cytotoxicity assay (ATP bioluminescence, LLC-PK1); format: cell-based, rat; details: read-out: EC50, rat kidney proximal tubule cell culture cytotoxicity assay
Procedure: (§8) Day 1: 1×10^5 to 2×10^5 cellswere inoculated (Cell line: LLC-PK1) per flask, containing 4 mL/T25 flask of medium DMEM-F12 (50/50) media supplemented with 10% FBS (Fetal Bovine Serum). The cells were then incubated at 37° C., 5% CO2, 80% RH.
(§9) Day 4: The cell cultures were examined to determine 80% confluency. To trypsinize of the 80% confluent flasks, 4 mL of DMEM-F12-10% FBS media was prepared per flask. The media was aspirated from the flask and 5 mL of Versene was added to rinse the flask. The Versene was aspirated and 2 mL of triple Express solution (trypsin solution) was added. The cells were incubated for 5 min at room temperature and examined via microscopy for the rounding of the cells and their detachment. To speed up the reaction, the flask can be incubated at 37° C. for 3 minutes. 4 mL of media (DMEM-F12-10%FBS) was added to stop the reaction. Using a 5 mL pipette, the completed reaction was pipetted up and down to ensure that the cells were properly detached from the flask and from each others. The cell number was counted using a hemocytometer slide. 100 μL of cell suspension was transferred to a tube and 100 μL of Trypan Blue was added. Inoculum for 96 well is 10,000 cells per well. For one 96 well plate, 26.3 μL×110 well=2893 μL total. 2.9 mL of cell suspension was mixed with 8.1 mL of media DMEM-F12-10% FBS and 100 μL was distributed to each well using a multichannel pipetter. The plate was then Incubated for 24 h at 37° C.
(§10) Day 5: DMEM-F12 (no FBS) medium was dispensed into tubes with the test article to achieve final concentrations of […]. The 96 well plate was taken off the incubator and media was removed from each well using multichannel pipetter. 80 μL of serially diluted compounds of Formula (I) was added to each well. Every set of concentration was done in triplicate. Media and positive controls were added to each plate and the plates were incubated for 24 hours at 37° C.
(§11) Day 6: The plates were taken from the incubator, the media was removed from each well, and 100 μL of fresh media DMEM-F12 (this is equivalent to a rinse and the media can be replaced with PBS) was added. The media is then removed and 80 μL of cell lysis solution is added. After 5 minutes, 80 μL of sterile filtered high quality water was added to each well. Using a white or black 96 well reaction plate, 80 μL of 25× diluted ATP mix reagent (Sigma Bioluminescent Somatic Cell Assay Kit [cat #FL-ASC]) was added into one column. 80 μL of diluted ATP standards (dilutions used: 250, 500, 1000, 2000 and 4000) was added and the plate was read immediately in the topcount with a 2 second read time. In another white or black 96 well reaction plate, 80 μL of 25× diluted ATP mix reagent (plate A) was added and 80 μL of lysis-water solution was transferred to each column of plate A. The plate was then read immediately in the topcount with a 2 second read time. This process was repeated for next consecutive plate and the EC50 for certain compounds of Formula I were calculated and provided in Table 4.

[3] = system: P. aeruginosa; experiment: MIC90, broth microdilution, panel of Gram negative clinical isolates; format: cell-based, Pseudomonas aeruginosa; details: for MIC90 P. aeruginosa: 100 strains
Procedure: (§12) To evaluate the potency and spectrum of compounds of Formula (I), (i.e., Compounds designated 5 and 6), a study was conducted that put together a panel of 455 Gram negative strains, which included multi-drug resistant clinical isolates selected from various surveillance programs. Table 3A lists the strains that were included in the study and the activity of Compound 5, Compound 6, and colistin (polymyxin E, abbreviated PME). Strains with acquired resistance to colistin and/or carbapenems and/or broad spectrum cephalosporins were pre-selected and included in all organism groups evaluated.
as §1, §2, §3, §4, §5, §6, §7

[4] = system: S. maltophilia; experiment: as above; format: cell-based, Stenotrophomonas maltophilia; details: 25 strains
Procedure: as §12, §1, §2, §3, §4, §5, §6, §7

[5] = system: E. coli; experiment: as above; format: cell-based, Escherichia coli; details: 80 strains; some strains multi-drug resistant
Procedure: as §12, §1, §2, §3, §4, §5, §6, §7

[6] = system: K. pneumonia; experiment: as above; format: cell-based, Klebsiella pneumoniae; details: 81 strains; some strains multi-drug resistant
Procedure: as §12, §1, §2, §3, §4, §5, §6, §7

[7] = system: Acinetobacter spp; experiment: as above; format: cell-based; details: 81 strains
Procedure: as §12, §1, §2, §3, §4, §5, §6, §7

[8] = system: Citrobacter spp.; experiment: as above; format: cell-based; details: 20 strains; some strains multi-drug resistant
Procedure: as §12, §1, §2, §3, §4, §5, §6, §7

[9] = system: Enterobacter; experiment: as above; format: cell-based; details: 20 strains; some strains multi-drug resistant
Procedure: as §12, §1, §2, §3, §4, §5, §6, §7

[10] = system: Rat kidney proximal tubule cells; experiment: Cell culture cytotoxicity assay (ATP bioluminescence, LLC-PK1); format: cell-based; details: LLC-PK1, 24 hours, ATP readout
Procedure: as §8, §9, §10, §11

[11] = system: Acinetobacter baumannii 1570; experiment: MIC, broth microdilution; format: cell-based; details: Table 8; range of repeated tests
Procedure: as §1, §2, §3, §4, §5, §6, §7
(§13) A. baumannii #1570 were grown in cation adjusted Mueller Hinton Broth (caMHB) (catalog #B12322; Fisher Scientific, Pittsburgh, Pa.) at 37° C. MIC testing was performed according to Clinical and Laboratory Standards Institute [CLSI, formerly National Committee for Clinical Laboratory Standards (NCCLS), Wayne, Pa.] guidelines for broth microdilution.
(§14) MIC testing was performed according to CLSI (formerly NCCLS) guidelines for broth microdilution.

[12] = system: P. aeruginosa #44; experiment: MIC, broth microdilution; format: cell-based, Pseudomonas aeruginosa; details: Table 5; range of repeated tests
Procedure: as §1, §2, §3, §4, §5, §6, §7
as §13, with “P. aeruginosa #44 or K. pneumoniae #21” for “A. baumannii #1570”
as §14

[13] = system: patients; details: human, in vivo; cited from earlier work

Row | Compound | activity against bacteria compared with polymyxin B [1] | MIC P. aeruginosa [1] [micrograms/ml] | EC50 [2] [mg/L] | MIC90 P. aeruginosa [3] [micrograms/mL] | decrease in activity against colistin susceptible P. aeruginosa ([3]; relative to colistin / Compound 5) | MIC90 S. maltophilia [4] [micrograms/mL] | MIC90 E. coli [5] | MIC90 K. pneumonia [6] | MIC90 Acinetobacter spp [7] [micrograms/mL] | MIC90 Citrobacter spp. [8] | MIC90 Enterobacter [9] | EC50 Rat kidney proximal tubule cells [10] [micrograms/ml] | MIC against A. baumannii #1570 [11] [micrograms/ml] | MIC against P. aeruginosa #44 [12] | overall incidence of neurotoxicity or neuropathy [13] [%]
1 | CC(C)C[C@@H]1NC(=O)[C@@H](Cc2ccccc2)NC(=O)[C@H](CCN)NC(=O)[C@@H](NC(=O)[C@H](CCN)NC(=O)[C@@H](NC(=O)[C@H](CCN)NC(=O)Nc2cccc(Cl)c2)[C@@H](C)O)CCNC(=O)[C@H]([C@@H](C)O)NC(=O)[C@H](CCN)NC(=O)[C@H](CCN)NC1=O [Compound 4] ({NH(3-Cl-phenyl)-CO}-[Dab]T[Dab][Dab][Dab][dF]L[Dab][Dab]T; lactam 4-C) | as active or more active | 2 | 691 (≈ 568 µM) | – | – | – | – | – | – | – | – | – | – | – | –
2 | CC[C@H](C)[C@@H]1NC(=O)[C@@H](Cc2ccccc2)NC(=O)[C@H](CCN)NC(=O)[C@@H](NC(=O)[C@H](CCN)NC(=O)[C@@H](NC(=O)[C@H](CCN)NC(=O)Nc2ccccc2Cl)[C@@H](C)O)CCNC(=O)[C@H]([C@@H](C)O)NC(=O)[C@H](CCN)NC(=O)[C@H](CCN)NC1=O [Compound 6] ({NH(2-ClPh)-CO}-[Dab]T[Dab][Dab][Dab][dF]I[Dab][Dab]T; lactam 4-C) | as active or more active | 1 | > 1000 | 8 | approximately 4 fold | 16 | 4 micrograms/mL | 4 micrograms/mL | 2 | 1 micrograms/mL | >16 micrograms/mL | >1000 | – | – | –
3 | colistin [reference compound] | – | – | – | 2 | – | 16 | 2* micrograms/mL | 4* micrograms/mL | 4 | 0.5* micrograms/mL | >64* micrograms/mL | – | 2 | 2-4 micrograms/ml | 7.3
